Test results as given in PMC9415509, “Pro-Apoptotic Antitumoral Effect of Novel Acridine-Core Naphthoquinone Compounds against Oral Squamous Cell Carcinoma” (Molecules, 2022).

Assays:
[1] = tested on: SCC9 (OSCC cell); assay: MTT cell viability assay (cytotoxicity), SCC9; format: cell-based, human; settings: for IC50: Homo sapiens, SCC-9, SCC9, 48 h, MTT (Table 1), read-out: SCC9—Oral Cancer IC50; for SCC9 S.I.: IC50 normal oral fibroblasts / IC50 SCC9
Method: (§1) Cells and reagents. Human SCC-4, SCC-9, and SCC-25 cells, derived from a human oral tongue SCC (squamous cell carcinoma) were obtained from the ATCC (CRL-1624, CRL-1629, and CRL-1628, respectively) and maintained in 1:1 DMEM/F12 (Dulbecco’s modified Eagle medium and Ham’s F12 medium; Gibco (Thermo Fisher, Waltham, MA, USA)) supplemented with 10% (v/v) FBS (fetal bovine serum; Invitrogen, Thermo Fisher, Waltham, MA, USA) and 400 ng/mL hydrocortisone (Sigma-Aldrich Co., St. Louis, MO, USA). Primary normal human gingival fibroblasts were obtained from the ATCC (PCS-201-018) and maintained in DMEM supplemented with 10% (v/v) FBS and were used in a maximum of six passages. The cells were grown in a humidified environment containing 5% CO2 at 37 °C. […] Carboplatin stock was prepared in water (Fauldcarbo®; LibbsFarmacêutica, São Paulo, SP, Brazil) and was used as a standard anticancer compound.
(§2) Cell viability assay (cytotoxicity) and compound stability assay. The viability of SCC cell lines and primary human fibroblast cells was evaluated using the MTT assay as in [48]. Briefly, the cells were grown in triplicates in 96-well plates (5 × 10^3 cells/well) until confluence. Then, the medium was removed, fresh medium was added, and the cells were returned to the incubator in the presence of different compounds. DMSO at the same concentrations was used as a 100% cell viability control. After 48 h, the cells were incubated with 5 mg/mL MTT reagent (3-(4,5-dimethyl-2-thiazolyl)-2,5-diphenyl-2-H-tetrazolium bromide) (Sigma-Aldrich Co., St. Louis, MO, USA) for 3.5 h. After that, formazan crystals were dissolved in MTT solvent solution (DMSO/methanol 1:1 v/v) and the absorbance at 560 nm was evaluated using an EPOCH microplate spectrophotometer (BioTek Instruments, Winooski, VT, USA) with the background absorbance at 670 nm subtracted.
(§3) Statistical analysis, IC50 calculation. The data are presented as means ±\SD. IC50 values for the MTT assays were obtained by nonlinear regression using the […] 5.0 program (Intuitive Software for Science, San Diego, CA, USA) from at least three independent experiments. A dose–response (inhibitor) vs. response curve using the least squares method was used to determine the IC50, SD, and R^2 of the data. The selectivity index was calculated as SI = IC50 of the compound in normal oral fibroblast cells/IC50 of the same compound for each oral cancer cell line (SCC-4, SCC-9, and SCC-25) and the mean was calculated when indicated.

[2] = tested on: SCC25 OSCC cell line; assay: MTT cell viability assay (cytotoxicity), SCC25; format: cell-based, human; settings: for IC50: Homo sapiens, SCC-25, SCC25, 48 h, MTT, read-out: Oral Tumor Cells SCC25 IC50; for SCC25 S.I.: IC50 normal oral fibroblasts / IC50 SCC25
Method: as §1, §2, §3

[3] = tested on: SCC4 OSCC cell line; assay: MTT cell viability assay (cytotoxicity), SCC4; format: cell-based, human; settings: for IC50: Homo sapiens, SCC-4, SCC4, 48 h, MTT, read-out: Oral Tumor Cells SCC4 IC50; for SCC4 S.I.: IC50 normal oral fibroblasts / IC50 SCC4
Method: as §1, §2, §3

[4] = MTT cell viability assay, normal fibroblasts; format: cell-based, human; settings: human, primary normal human gingival fibroblasts (ATCC PCS-201-018)
Method: as §1, §2, §3

[5] = tested on: Primary normal human gingival fibroblasts; assay: MTT cell viability assay, normal fibroblasts; format: cell-based; settings: Homo sapiens, Fibroblast; primary gingival fibroblasts, 48 h, MTT; read-out: Primary Gingival Fibroblast IC50
Method: as §1, §2, §3

melting point [°C]	Structure (SMILES)	IC50 [1] [µM]	SCC9 S.I. [1]	IC50 [2] [µM]	SCC25 S.I. [2]	IC50 [3] [µM]	SCC4 S.I. [3]	viability at 48 h [4] [%]	IC50 [5] [µM]
250 to 251	COc1ccc(C2C3=C(CC(C)(C)CC3=O)NC3=C2C(=O)c2ccccc2C3=O)c(OC)c1 (stereo not drawn) [4j, 12-(2,4-dimethoxyphenyl)-3,3-dimethyl-3,4-dihydrobenzo[b]acridine-1,6,11(2H,5H,12H)-trione]	4.1	5.7	11.5	2.0	18.9	1.2	> 75	23.6
242 to 243	COc1cc(C2C3=C(CC(C)(C)CC3=O)NC3=C2C(=O)c2ccccc2C3=O)cc(OC)c1OC (stereo not drawn) [4m, 12-(3,4,5-trimethoxyphenyl)-3,3-dimethyl-3,4-dihydrobenzo[b]acridine-1,6,11(2H,5H,12H)-trione]	2.06	3.8	7.41	1.1	11	0.7	> 75	7.86
